This note sets out measurements from US20060009433A1, “Neuroprotective spirostenol pharmaceutical compositions” (priority 2003, published 2006).

Structures are written as SMILES. “Also recorded” adds a separate entry of the source.

For data set [1], the system named is NT2 cells. Description: BrdU assay, NT2 cell proliferation. The format is cell-based, human.
Another data set deals with rat PC12 neuronal cells. Description: MTT assay, Aβ1-42-induced cytotoxicity in PC12 cells (Example I). The settings on record: MTT; for neuroprotective effect against Aβ-induced neurotoxicity: Aβ1-42. Background: Tetrazolium dyes change colour on reduction, which living cells bring about.
The subject of data set [2] is NT2 cells. Kind of data set: LDH and MTT assays, NT2 cell viability. The settings on record: LDH and MTT; 25-50 μM; 3-day treatment.
In data set [3] the test system is NT2 cells. Kind of data set: NT2 cell differentiation, phase-contrast morphology. The following applies: 25 μM; 3, 6 and 12 days (comparators 6 days). The class given is cell-based, human.
Data set [4] concerns PC12 cells. Kind of data set: Cellular ATP levels (ATPLite-M) in Aβ-treated PC12 cells. The format is cell-based, rat. The following applies: 0.1 and 1.0 μM Aβ. The procedure: (§1) PC12 cells (rat pheochromocytoma neurons) from ATCC (Manassas, Va.) were cultured at 37° C. and 5% CO2 in RPMI 1640 medium devoid of glutamine and supplemented with 10% fetal bovine serum and 5% horse serum. Yao Z, Drieu K and Papadopoulos V., The Gingko biloba extract EGb 761 rescues PC12 neuronal cells from β-amyloid-induced cell death by inhibiting the formation of (3-amyloid-derived diffusible neurotoxic ligands, Brain Res, 889, 181-190 (2001). Cells were seeded in 96-well plates (8×10^4 cells/well). After an overnight period of incubation, increasing concentrations of aggregated Aβ (0.1, 1 and 10 μM) were added to the cells in the presence or absence of the indicated concentrations of the SP compounds to be tested. After 72-hours incubation time various parameters, markers of cell viability, were determined. Mouse MA-10 tumor Leydig cells were maintained at 37° C. in DMEM/Ham's F12 (Biofluids, Rockville, Md.) medium supplemented with 5% heat-inactivated fetal calf serum and 2.5% horse serum in 5% CO2. Cells were plated on 96-well plates at the density of 2.5×10^4 cells/well for overnight. The cells were stimulated with the indicated concentrations of the various SP compounds in 0.2 ml/well serum-free medium for 2 hours. The culture medium was collected and tested for progesterone production by radioimmunoassay.
Cellular ATP concentrations were measured using the ATPLite-M™ luminescence assay (Packard BioSciences Co.). For this assay, cells were cultured on black 96-well ViewPlate™ and the ATP concentrations were measured on a TopCount NXT™ counter (Packard BioSciences Co.) following the recommendations of the manufacturer.
In general terms: In ATP-based viability assays light output follows the ATP content of the culture.

The target in data set [5] is T1, Aβ (Homo sapiens, UniProt P05067).
T1 construct: Aβ1-42 peptide was purchased from American Peptide Co; purchased American Peptide Co. (Sunnyvale, Calif.)
T1 sequence (P05067 672-713): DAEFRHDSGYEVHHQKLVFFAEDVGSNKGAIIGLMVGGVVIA
Description: CPBBA displacement of radiolabeled 22R-hydroxycholesterol from Aβ (Example II). The class given is binding. The settings on record: 100 μM unlabeled compound; 50 μM Aβ. The procedure:
At the end of the incubation time, samples were separated by 1.5% agarose (Type I-B) gel electrophoresis under native conditions and transferred to nitrocellulose membrane (Schleicher&Schuell, Keene, N.H.) in 10×SSC buffer. The membrane was exposed to tritium-sensitive screen and analyzed by phosphoimaging using the Cyclone Storage phosphor system (Packard BioScience). Image-densitometric analysis was performed using the OptiQuant software (Packard BioScience). […] Low molecular weight unincorporated 22R-hydroxycholesterol and derivatives are separated and eliminated during electrophoresis.

Data set [6] concerns PC12 cells. Description: Membrane potential (CytoLite luminescence) in Aβ-treated PC12 cells. The class given is cell-based, rat. The settings on record: 10 μM Aβ. The procedure: as §1
Cells viability was also assessed using the luminescence-based kit CytoLite™ (Packard BioScience Co.) according to the recommendations of the manufacturer. Briefly, cells were cultured and treated in 96-well plates and after 72-hours incubation time, 25 μl of Activator solution was added to the cells followed by 150 μl of Amplifier solution. Luminescence was measured on a TopCount NXT™ counter (Packard BioSciences Co.) following a 5 minute precount delay.

For data set [7], the system named is PC12 cells (rat pheochromocytoma neurons). Kind of data set: MTT cytotoxicity assay, Aβ-induced neurotoxicity in PC12 cells (Example II). The following applies: for neuroprotective effect compared with SP222 / neuroprotection against 0.1 μM Aβ-induced neurotoxicity / neuroprotection against 1 μM Aβ-induced neurotoxicity / neuroprotection against 10 μM Aβ-induced neurotoxicity: MTT; for neuroprotection against 0.1 μM Aβ-induced neurotoxicity / neuroprotection against 1 μM Aβ-induced neurotoxicity / neuroprotection against 10 μM Aβ-induced neurotoxicity: compounds at 30 and 50 μM, 72 hours; for neuroprotection against Aβ-induced neurotoxicity (structure/activity discussion): PC12 cells. The class given is cell-based. On the procedure:
as §1
The cellular toxicity of Aβ was assessed using the 3-(4,5-dimethylthiazol-2-yl)-2,5-diphenyl tetrazolium bromide (MTT) assay (Trevigen, Gaithersburg, Md.). Briefly, 10 μl of the MTT solution were added to the cells cultured in 100 μl medium. After an incubation period of 4 hours, 100 μl of detergent were added and cells were incubated overnight at 37° C. Formazan blue formation was quantified at 600 nm and 690 nm using the Victor quantitative detection spectrophotometer (EGG-Wallac, Gaithersburg, Md.) and the results expressed as (DO600-DO690). […] Liu Y and Schubert D, Steroid hormones block amyloid fibril-induced 3-(4,5-dimethylthiazol-2-yl)-2,5-diphenyltetrazolium bromide (MTT) formazan exocytosis: relationship to neurotoxicity, J. Neurochem., 19, 1639-1662 (1998). For that reason, additional cytotoxicity and cell viability assays were used.
Yao et al., J. Neurochem., 83, 1110-1119 (2002); and Yao et al., The Gingko biloba extract EGb 761 rescues PC12 neuronal cells from β-amyloid-induced cell death by inhibiting the formation of β-amyloid-derived diffusible neurotoxic ligands, Brain Res., 889, 181-190 (2001). To stay close to the concentrations of Aβ present in AD brain, 0.1-10 μM concentrations of Aβ were used. The compounds tested for their neuroprotective properties were examined at 30 and 50 μM concentrations (FIGS. 9-15).

Data set [8] deals with MA-10 mouse tumor Leydig cells. Description: Steroid (progesterone) formation in MA-10 Leydig cells. The format is in vitro ADME. The settings on record: MA-10 cells, 2 hours. On the procedure: as §1, with “The cells were stimulated with the indicated concentrations of the various SP compounds in 0.2 ml/well serum-free medium for 2 hours. The culture medium was collected and tested for progesterone production by radioimmunoassay.” left out
Progesterone production by MA-10 cells was measured by radioimmunoassay using anti-progesterone antisera (ICN, Costa Mesa, Calif.), following the conditions recommended by the manufacturer. […] Radioimmunoassay data was analyzed using the MultiCalc software (EG&G Wallac, Gaithersburg, Md.). […]

For data set [9], the system named is PC12 cells. Kind of data set: Trypan blue uptake, Aβ-treated PC12 cells (Example II). The class given is cell-based, rat. The procedure:
as §1, with “The cells were stimulated with the indicated concentrations of the various SP compounds in 0.2 ml/well serum-free medium for 2 hours. The culture medium was collected and tested for progesterone production by radioimmunoassay.” left out
Cell viability was measured using the trypan blue exclusion method as we previously described. […] After washing three times with PBS, 0.1 N NaOH was added to the cells and trypan blue was quantified using the Victor quantitative detection spectrophotometer at 450 nm.

Data set [10] addresses T1, Aβ. Description: Immunoblot analysis of Aβ polymerization and ADDL formation. The format is biochemical. The following applies: SP233 1, 10, 100 μM. The procedure:
Increasing concentration of Aβ (0.1, 1 and 10 μM) were incubated in PC12 culture medium for 24 hours and 72 hours at 37° C. under 5% CO2 with or without increasing concentrations of SP233 (1, 10 and 100 μM). At the end of the incubation time, samples were separated by 4-20% Tris-Glycine gel electrophoresis (Invitrogen) under native conditions at 125V for 2 hours and transferred to nitrocellulose membrane (Hybond™ ECL™, Amersham Pharmacia Biotech) at […] for 30 minutes. Non-specific adsorption of the antibodies was blocked by incubating the nitrocellulose in 5% milk. The blots were treated for immunodetection of Aβ species using a polyclonal antibody to Aβ that recognizes a 30 amino acid peptide of the Aβ protein (Zymed Laboratories, San Francisco, Calif.). Membranes were incubated in primary antibody for 1 hour at room temperature at a dilution of 1:2,000. Then, membranes were incubated in the secondary antibody at a dilution of 1:1,000 for 1.5 hours at room temperature. The blots were visualized using the ECL™ Western Blotting Analysis System (Amersham Biosciences). Image-densitometric analysis was performed using the OptiQuant software (Packard BioScience). This method allows for the separation, visualization and identification of Aβ complexes, polymers and ADDLs.

Turning to `CC(=O)[C@H]1CC[C@H]2[C@@H]3CC=C4C[C@@H](O)CC[C@]4(C)[C@H]3CC[C@]12C` [pregnenolone, 5-pregnen-3β-ol-20-one], the “NT2 cell proliferation at 50 μM” value in the data set on NT2 cells [1] is listed as “significantly inhibited”. Moreover, in the data set on rat PC12 neuronal cells, the “neuroprotective effect against Aβ-induced neurotoxicity” value was “could not be replicated”. Also, the “PC12 cell viability, steroid alone” value in the data set on rat PC12 neuronal cells (absence of Aβ) was “toxic to the cells”. Also, the “cytotoxicity at high concentrations” value in the data set with NT2 cells [2] was “cytotoxic”.
As for `CC(C)CC[C@H](O)[C@@H](C)[C@H]1CC[C@H]2[C@@H]3CC=C4C[C@@H](O)CC[C@]4(C)[C@H]3CC[C@]12C` [22S-hydroxycholesterol, 5-cholesten-3β, 22S-diol], the “effect on NT2 cell morphology (differentiation)” value in the data set with NT2 cells [3] is recorded as “could not be replicated”. In addition, the “NT2 cell proliferation at 25 μM” value in the data set with NT2 cells [1] (25 μM) is recorded as “significantly inhibited”. In addition, in the data set with NT2 cells [1], the “NT2 cell proliferation at 50 μM” value is given as “significantly inhibited”. Besides, the “PC12 cell viability, steroid alone at 100 μM” value with rat PC12 neuronal cells (100 μM steroid) is recorded as “neurotoxic”. Besides, the “neuroprotective effect against Aβ-induced neurotoxicity” value in the data set with rat PC12 neuronal cells is “failed to protect; also recorded: inactive”. In addition, the “cytotoxicity at high concentrations” value in the data set on NT2 cells [2] is “cytotoxic”.
For `CCC(=O)O[C@H]1CC[C@@]2(C)C(=CC[C@H]3[C@@H]4C[C@@H]5O[C@@]6(CC[C@H](C)CN6C(C)=O)[C@@H](C)[C@@H]5[C@@]4(C)CC[C@@H]32)C1` [SP238, (20α)-25S-methyl-N-acetyl-(22S,26)-azacyclofurost-5-en-3β-yl propanoate], the “reversal of Aβ-induced decrease in ATP levels” value with PC12 cells [4] is “did not block; also recorded: no effect on maintaining ATP levels”. In addition, at Aβ [5], the “displacement of radiolabeled 22R-hydroxycholesterol binding to Aβ” value is recorded as 44%. The “neuroprotective effect against 10 μM Aβ, membrane potential luminescence” value in the data set with PC12 cells [6] is reported as “replicated by the raise of the signal”. The “neuroprotective effect compared with SP222” value in [7] (0.1 μM Aβ) is on record as “significantly more robust effect than SP222”. In data set [7], the “neuroprotection against 0.1 μM Aβ-induced neurotoxicity” value is recorded as “displayed neuroprotective activity”, the “neuroprotection against 1 μM Aβ-induced neurotoxicity” value is listed as “maintained their neuroprotective properties”, the “neuroprotection against 10 μM Aβ-induced neurotoxicity” value was “kept this property; also recorded: exhibited neuroprotective activity” and the “neuroprotection against Aβ-induced neurotoxicity (structure/activity discussion)” value is listed as “able to protect PC12 cells”.
Consider `CCCCCC(=O)O[C@H]1CC[C@@]2(C)C(=CC[C@H]3[C@@H]4C[C@@H]5O[C@@]6(CC[C@H](C)CO6)[C@@H](C)[C@@H]5[C@@]4(C)CC[C@@H]32)C1` [SP233, (22S,25S)-(20S)-spirost-5-en-3β-yl hexanoate], for which the “metabolism to final steroid products / steroid formation” value in data set [8] was “could not be metabolized to final steroid products; also recorded: unable to induce steroid formation”. Further, the “dose-dependence of the neuroprotective effect” value with PC12 cells [9] (FIG. 15, 0.1, 1.0 and 10.0 μM Aβ) was “dose-dependent”. Further, in the data set with PC12 cells [9] (SP233 at 30 and 50 μM, 0.1, 1 and 10 μM Aβ), the “effect on Aβ-induced cell death (trypan blue uptake)” value is “inhibited the Aβ-induced cell death”. In addition, the “reversal of Aβ-induced decrease in ATP levels” value with PC12 cells [4] was “able to reverse; also recorded: blocked, although in part”. In addition, at Aβ [5], the “displacement of radiolabeled 22R-hydroxycholesterol binding to Aβ” value worked out at 35%. Besides, the “amount of Aβ polymeric species” value on Aβ [10] was “small dose-dependent increase”. Further, the “trimeric and tetrameric ADDLs” value at Aβ [10] (10 μM Aβ, 24 and 72 hours) was “dose-effect relationship is also observed; also recorded: decreased in a dose-dependent manner”. The “amount of Aβ monomeric species” value on Aβ [10] (1 and 10 μM Aβ, 24 and 72 hours) is listed as “decreases in a dose-dependent manner”. For the same compound, the “neuroprotective effect against 10 μM Aβ, membrane potential luminescence” value in the data set with PC12 cells [6] is “replicated by the raise of the signal”. In [7] (0.1 μM Aβ), the “protection against 0.1 μM Aβ” value amounted to 75% and the “neuroprotective effect compared with SP222” value is “significantly more robust effect than SP222”. Also, in data set [7], the “neuroprotection against 0.1 μM Aβ-induced neurotoxicity” value is recorded as “displayed neuroprotective activity”, the “neuroprotection against 1 μM Aβ-induced neurotoxicity” value is on record as “maintained their neuroprotective properties”, the “neuroprotection against 10 μM Aβ-induced neurotoxicity” value is recorded as “kept this property; also recorded: exhibited neuroprotective activity” and the “neuroprotection against Aβ-induced neurotoxicity (structure/activity discussion)” value is reported as “the most potent compound”. In data set [7] (all assays used), the “neuroprotection in vitro against Aβ at concentrations as low as” value worked out at 10 µM.
